Source: patent publication US8278282B2, “Nucleoside analogs for treatment of viral infections” (Novartis AG, priority 2007, dated 2012)

Key:
[1] = system: West Nile virus; assay: microbe, parasite or virus in culture; assay type: cell-based
[2] = system: dengue virus serotype 1; assay: microbe, parasite or virus in culture; assay type: cell-based
[3] = system: Japanese encephalitis virus; assay: microbe, parasite or virus in culture; assay type: cell-based
[4] = system: dengue virus serotype 4; assay: microbe, parasite or virus in culture; assay type: cell-based
[5] = system: HCV replicon; assay: Cell-based HCV replicon assay; conditions: Hepatitis C virus
[6] = system: TSV01 dengue virus 2; assay: Mouse model of dengue infection (viremia by plaque assay); conditions: 25 mg/kg bid, compared to the control group
[7] = system: yellow fever virus; assay: microbe, parasite or virus in culture; assay type: cell-based
[8] = system: dengue virus serotype 2; assay: microbe, parasite or virus in culture; assay type: cell-based

| Structure (SMILES) | EC50 [1] [nM] | EC50 [2] [nM] | EC50 [3] [nM] | EC50 [4] [nM] | EC50 [5] [nM] | reduction in viremia [6] | EC50 [7] [nM] | EC50 [8] [nM] |
| --- | --- | --- | --- | --- | --- | --- | --- | --- |
| C#C[C@@]1(O)[C@H](O)[C@@H](CO)O[C@H]1n1ccc2c(N)ncnc21 [Example 1, (2R,3R,4R,5R)-2-(4-Amino-pyrrolo[2,3-d]pyrimidin-7-yl)-3-ethynyl-5-hydroxymethyl-tetrahydrofuran-3,4-diol] | ~3750 | ~200 | ~1300 | ~200 | ~100 | about 20 fold | ~900 |  |
| C#C[C@@]1(O)[C@H](O)[C@@H](CO)O[C@H]1n1cc(F)c2c(N)ncnc21 [Example 4, (2R,3R,4R,5R)-2-(4-Amino-5-fluoro-pyrrolo[2,3-d]pyrimidin-7-yl)-3-ethynyl-5-hydroxymethyl-tetrahydrofuran-3,4-diol] |  |  |  |  |  |  |  | ~400 |
| C#Cc1cn([C@@H]2O[C@H](CO)[C@@H](O)[C@]2(O)C#C)c2ncnc(N)c12 [Example 8, (2R,3R,4R,5R)-2-(4-Amino-5-ethynyl-pyrrolo[2,3-d]pyrimidin-7-yl)-3-ethynyl-5-hydroxymethyl-tetrahydro-furan-3,4-diol] |  |  |  |  |  |  |  | ~600 |
